Assay results as given in patent US11053259B2, “Crystal of cephalosporin intermediate 7α-methoxy cephalothin and method for preparing same” (QILU ANTIBIOTICS PHARMACEUTICAL CO. LTD., priority 2017, dated 2021).
Counter-ions that a name gives are not always drawn.

Legend:
[1] = 6-month accelerated comparative study on stability; type: physicochemical; conditions: for Appearance / Content / Moisture: 25° C. and RH of 60%
[2] = hygroscopicity and storage stability of the cyclohexylamine salt (statement on existing technology); type: physicochemical

CO[C@@]1(NC(=O)Cc2cccs2)C(=O)N2C(C(=O)O)=C(COC(C)=O)CS[C@@H]21 [Crystal of 7α-Methoxy Cephalothin, (6R, 7S)-3-acetyloxymethyl-7-methoxy-8-oxo-7-[2-(2-thienyl)acetamido]-5-thia-1-nitrobicyclo [4.2.0] oct-2-ene-2-carboxylic acid]
Appearance ([1]; Month 0): Off-white | Content ([1]; Month 0): 98.2% | Moisture ([1]; Month 0): 0.26% | Appearance ([1]; Month 1): Off-white | Content ([1]; Month 1): 98.2% | Moisture ([1]; Month 1): 0.27% | Appearance ([1]; Month 2): Off-white | Content ([1]; Month 2): 98.1% | Moisture ([1]; Month 2): 0.27% | Appearance ([1]; Month 3): Off-white | Content ([1]; Month 3): 98.1% | Moisture ([1]; Month 3): 0.29% | Appearance ([1]; Month 6): Off-white | Content ([1]; Month 6): 97.9% | Moisture ([1]; Month 6): 0.28%

CO[C@@]1(NC(=O)Cc2cccs2)C(=O)N2C(C(=O)O)=C(COC(C)=O)CS[C@@H]21 [listing 1 of 2 here]
storage stability [2]: poor storage stability

CO[C@@]1(NC(=O)Cc2cccs2)C(=O)N2C(C(=O)O)=C(COC(C)=O)CS[C@@H]21 [Cyclohexylamine Salt of 7α-Methoxy Cephalothin]
hygroscopicity [2]: strong hygroscopicity | Appearance ([1]; Month 0): Off-white | Content ([1]; Month 0): 78.4% | Moisture ([1]; Month 0): 0.13% | Appearance ([1]; Month 1): Light | Content ([1]; Month 1): 77.5% | Moisture ([1]; Month 1): 0.87% | Appearance ([1]; Month 2): Yellow | Content ([1]; Month 2): 76.3% | Moisture ([1]; Month 2): 1.56% | Appearance ([1]; Month 3): Yellow | Content ([1]; Month 3): 75.1% | Moisture ([1]; Month 3): 1.84% | Appearance ([1]; Month 6): Earthy | Content ([1]; Month 6): 72.4% | Moisture ([1]; Month 6): 2.55%

CO[C@@]1(NC(=O)Cc2cccs2)C(=O)N2C(C(=O)O)=C(COC(C)=O)CS[C@@H]21 [listing 2 of 2 here]
stability of appearance, hygroscopicity and content (overall result in words) ([1]; 6-month accelerated testing): better purity and quality stability
